Conditions: for mass density: isochoric method

CCC(C)O (centres undefined) [butan-2-ol]
Conditions | Critical density [kg/m3] | Critical temperature [K] | mass density [kg/m3]
306.95 K, Liquid | – | – | 794.06
335.35 K, Liquid | – | – | 769.05
367.55 K, Liquid | – | – | 735.98
408.51 K, Liquid | – | – | 683.53
433.35 K, Liquid | – | – | 648.53
463.85 K, Liquid | – | – | 598.18
492.87 K, Liquid | – | – | 538.17
504.95 K, Gas | – | – | 76.44
514.26 K, Gas | – | – | 95.93
515.15 K, Liquid | – | – | 474.07
522.2 K, Gas | – | – | 117
527.92 K, Gas | – | – | 142.27
529.41 K, Liquid | – | – | 403.55
533.73 K, Gas | – | – | 184.89
534.55 K, Liquid | – | – | 347.06
534.68 K, Gas | – | – | 198.25
535.83 K, Gas | – | – | 245.67
535.83 K, Liquid | – | – | 301.19
535.89 K, Liquid | – | – | 286.65
535.93 K, Liquid | – | – | 284.93
535.94 K, Liquid | – | – | 279.19
535.95 K, Liquid | – | – | 276.45
Liquid, DSC | 276.4 | – | –
Liquid, DTA | – | 535.95 | –
